The values below come from ChEMBL document CHEMBL2396653, “Synthesis and antimycobacterial evaluation of N-substituted 5-chloropyrazine-2-carboxamides” (Bioorg Med Chem Lett, 2013).

What is called MIC is the lowest concentration that inhibits growth of the organism.

Data set [1] can be described thus: Stability of the compound at pH 7. It is filed as physicochemical. As to conditions: buffer.
The subject of data set [2] is Trichophyton mentagrophytes. The experiment in a line: Antifungal activity against Trichophyton mentagrophytes 445 assessed as growth inhibition after 72 to 120 hrs by microbroth dilution method. The format is functional, organism-based. On the technique in general: Broth dilution looks for growth in wells or tubes with falling amounts of substance.
In a further data set the test system is Lichtheimia corymbifera. Nature of the data set: Antifungal activity against Absidia corymbifera 272 assessed as growth inhibition after 24 to 48 hrs by microbroth dilution method. The format is functional, organism-based.
The next data set deals with Aspergillus fumigatus. The experiment in a line: Antifungal activity against Aspergillus fumigatus 231 assessed as growth inhibition after 24 to 48 hrs by microbroth dilution method. The format is functional, organism-based.
The next data set deals with Trichosporon asahii. The experiment in a line: Antifungal activity against Trichosporon asahii 1188 assessed as growth inhibition after 24 to 48 hrs by microbroth dilution method. It is filed as functional, organism-based.
The subject of another data set is Nakaseomyces glabratus. The experiment in a line: Antifungal activity against Candida glabrata 20/I assessed as growth inhibition after 24 to 48 hrs by microbroth dilution method. It is filed as functional, organism-based.
For the next data set, the system named is Pichia kudriavzevii. Nature of the data set: Antifungal activity against Candida krusei E28 assessed as growth inhibition after 24 to 48 hrs by microbroth dilution method. The format is functional, organism-based.
Another data set has as its system Candida albicans. Nature of the data set: Antifungal activity against Candida albicans ATCC 44859 assessed as growth inhibition after 24 to 48 hrs by microbroth dilution method. It is filed as functional, organism-based.
The subject of another data set is Candida tropicalis. The experiment in a line: Antifungal activity against Candida tropicalis 156 assessed as growth inhibition after 24 to 48 hrs by microbroth dilution method. It is filed as functional, organism-based.
Data set [3] concerns Klebsiella pneumoniae. Nature of the data set: Antibacterial activity against ESBL-positive Klebsiella pneumoniae J 14368/08 clinical isolate assessed as growth inhibition after 24 to 48 hrs by microbroth dilution method. It is filed as functional, organism-based.
For data set [4], the system named is Klebsiella pneumoniae. Nature of the data set: Antibacterial activity against Klebsiella pneumoniae D 11750/08 clinical isolate assessed as growth inhibition after 24 to 48 hrs by microbroth dilution method. It is filed as functional, organism-based.
The test system of another data set is Enterococcus. Nature of the data set: Antibacterial activity against Enterococcus sp. J 14365/08 clinical isolate assessed as growth inhibition after 24 to 48 hrs by microbroth dilution method. It is filed as functional, organism-based.
Data set [5] concerns Staphylococcus epidermidis. Nature of the data set: Antibacterial activity against Staphylococcus epidermidis H 6966/08 clinical isolate assessed as growth inhibition after 24 to 48 hrs by microbroth dilution method. It is filed as functional, organism-based.
In data set [6] the test system is Staphylococcus aureus. The experiment in a line: Antibacterial activity against methicillin-resistant Staphylococcus aureus H 5996/08 clinical isolate assessed as growth inhibition after 24 to 48 hrs by microbroth dilution method. It is filed as functional, organism-based.
The test system of the next data set is Pseudomonas aeruginosa. The experiment in a line: Antibacterial activity against Pseudomonas aeruginosa CCM 1961 assessed as growth inhibition after 24 to 48 hrs by microbroth dilution method. The format is functional, organism-based.
The next data set concerns Escherichia coli. Nature of the data set: Antibacterial activity against Escherichia coli CCM 4517 assessed as growth inhibition after 24 to 48 hrs by microbroth dilution method. The format is functional, organism-based.
Data set [7] relates to Staphylococcus aureus. Nature of the data set: Antibacterial activity against Staphylococcus aureus CCM 4516/08 assessed as growth inhibition after 24 to 48 hrs by microbroth dilution method. The format is functional, organism-based.
Data set [8] in a line: Lipophilicity, log K of the compound by HPLC analysis. It is filed as physicochemical.
Data set [9] deals with Mycobacterium avium. The experiment in a line: Antimycobacterial activity against Mycobacterium avium CNCTC My 152/73 assessed as growth inhibition after 14 days by microdilution method. The format is functional. The following applies: CNCTC My 152/73, 336 h.
Data set [10] relates to Mycobacterium avium. The experiment in a line: Antimycobacterial activity against Mycobacterium avium CNCTC My 80/72 assessed as growth inhibition after 14 days by microdilution method. It is filed as functional. As to conditions: CNCTC My 80/72, 336 h.
The subject of another data set is Mycobacterium kansasii. Nature of the data set: Antimycobacterial activity against Mycobacterium kansasii CNCTC My 235/80 assessed as growth inhibition after 14 days by microdilution method. The format is functional. As to conditions: CNCTC My 235/80, 336 h.
In data set [11] the test system is Mycobacterium tuberculosis. Nature of the data set: Antimycobacterial activity against Mycobacterium tuberculosis H37Rv assessed as growth inhibition after 14 days by microdilution method. The format is functional. As to conditions: 336 h.

In brackets after ≈: the same amount, converted by molar mass. Activity calls are given as the source filed them. The rule behind the calls is not given here.

Regarding `O=C(NCc1cccc([N+](=O)[O-])c1)c1cnc(Cl)cn1`, in [1], the Stability result is given as “Stable”. Also, the “growth inhibition (GI)” value (in [2]; in the data set with Lichtheimia corymbifera; with Aspergillus fumigatus; with Trichosporon asahii; in the data set on Nakaseomyces glabratus; in the data set with Pichia kudriavzevii) was “inactive” throughout. For the same compound, the “growth inhibition (GI)” value (with Candida albicans; in the data set with Candida tropicalis; in the data set with Klebsiella pneumoniae [3]; in the data set with Klebsiella pneumoniae [4]; in the data set with Enterococcus; in [5]) was “inactive” throughout. The “growth inhibition (GI)” value with Staphylococcus aureus [6], in the data set on Pseudomonas aeruginosa, in the data set with Escherichia coli and with Staphylococcus aureus [7] was “inactive” in each case. Besides, in [8], the “log K” value amounted to 0.1189. The MIC in the data set with Mycobacterium avium [9] was > 100 µg/mL; in the data set with Mycobacterium avium [10], > 100 µg/mL; in the data set on Mycobacterium kansasii it was 12.5 µg/mL (≈ 42.7 µM); in data set [11], > 100 µg/mL.
With `COc1ccc(CNC(=O)c2cnc(Cl)cn2)c(OC)c1`, the Stability entry in data set [1] is given as “Stable”. For the same compound, the “growth inhibition (GI)” value (in data set [2]; in the data set on Lichtheimia corymbifera; in the data set with Aspergillus fumigatus; in the data set with Trichosporon asahii; in the data set on Nakaseomyces glabratus; with Pichia kudriavzevii) was “inactive” throughout. In addition, the “growth inhibition (GI)” value (in the data set with Candida albicans; in the data set on Candida tropicalis; in the data set on Klebsiella pneumoniae [3]; in the data set on Klebsiella pneumoniae [4]; with Enterococcus; in data set [5]) was “inactive” in each case. The “growth inhibition (GI)” value in the data set with Staphylococcus aureus [6], with Pseudomonas aeruginosa, with Escherichia coli and with Staphylococcus aureus [7] was “inactive” each time. In addition, the “log K” value in [8] is listed as 0.2266. In addition, the MIC (with Mycobacterium avium [9]; in the data set with Mycobacterium avium [10]; in the data set on Mycobacterium kansasii; in data set [11]) was > 100 µg/mL each time.
With `O=C(Nc1ccccc1F)c1cnc(Cl)cn1`, the Stability result in [1] is “Stable”. Moreover, the “growth inhibition (GI)” value (in data set [2]; in the data set on Lichtheimia corymbifera; in the data set on Aspergillus fumigatus; with Trichosporon asahii; in the data set on Nakaseomyces glabratus; in the data set on Pichia kudriavzevii) was “inactive” throughout. Besides, the “growth inhibition (GI)” value (in the data set with Candida albicans; with Candida tropicalis; in the data set with Klebsiella pneumoniae [3]; in the data set with Klebsiella pneumoniae [4]; in the data set with Enterococcus; in data set [5]) was “inactive” throughout. The “growth inhibition (GI)” value in the data set with Staphylococcus aureus [6], in the data set on Pseudomonas aeruginosa, in the data set on Escherichia coli and in the data set on Staphylococcus aureus [7] was “inactive” each time. Moreover, in [8], the “log K” value was determined as 0.4903. For the same compound, the MIC in the data set on Mycobacterium avium [9] was > 100 µg/mL; in the data set with Mycobacterium avium [10], > 100 µg/mL; in the data set with Mycobacterium kansasii, 12.5 µg/mL (≈ 49.7 µM); in data set [11] it was 6.25 µg/mL (≈ 24.8 µM).
As to `Cc1ccccc1CNC(=O)c1cnc(Cl)cn1`, in data set [1], the Stability entry was “Stable”. The “growth inhibition (GI)” value (in data set [2]; in the data set with Lichtheimia corymbifera; with Aspergillus fumigatus; with Trichosporon asahii; with Nakaseomyces glabratus; in the data set with Pichia kudriavzevii) was “inactive” throughout. Also, the “growth inhibition (GI)” value (in the data set with Candida albicans; with Candida tropicalis; with Klebsiella pneumoniae [3]; in the data set on Klebsiella pneumoniae [4]; with Enterococcus; in data set [5]) was “inactive” in each case. Also, the “growth inhibition (GI)” value in the data set with Staphylococcus aureus [6], in the data set on Pseudomonas aeruginosa, with Escherichia coli and with Staphylococcus aureus [7] was “inactive” throughout. Further, the “log K” value in data set [8] is recorded as 0.3947. The MIC is > 100 µg/mL with Mycobacterium avium [9], > 100 µg/mL with Mycobacterium avium [10], 25 µg/mL (≈ 95.5 µM) with Mycobacterium kansasii and 50 µg/mL (≈ 191 µM) in [11].
With `O=C(Nc1cccc(Cl)c1)c1cnc(Cl)cn1`, the Stability entry in [1] was “Stable”. Further, the “growth inhibition (GI)” value (in data set [2]; with Lichtheimia corymbifera; with Aspergillus fumigatus; in the data set with Trichosporon asahii; in the data set with Nakaseomyces glabratus; in the data set with Pichia kudriavzevii) was “inactive” throughout. Besides, the “growth inhibition (GI)” value (in the data set with Candida albicans; in the data set with Candida tropicalis; in the data set with Klebsiella pneumoniae [3]; with Klebsiella pneumoniae [4]; in the data set on Enterococcus; in data set [5]) was “inactive” in each case. Further, the “growth inhibition (GI)” value in the data set on Staphylococcus aureus [6], in the data set with Pseudomonas aeruginosa, in the data set on Escherichia coli and in the data set on Staphylococcus aureus [7] was “inactive” each time. The “log K” value in data set [8] was 0.5873. The minimal inhibitory concentration (MIC) with Mycobacterium avium [9] worked out at 25 µg/mL (≈ 93.2 µM); in the data set on Mycobacterium avium [10] it was 25 µg/mL (≈ 93.2 µM); with Mycobacterium kansasii, 25 µg/mL (≈ 93.2 µM); in [11] it was 3.13 µg/mL (≈ 11.7 µM).
Turning to `O=C(NCc1cccc(Cl)c1)c1cnc(Cl)cn1`, the Stability entry in [1] is listed as “Stable”. Also, the “growth inhibition (GI)” value (in [2]; with Lichtheimia corymbifera; in the data set on Aspergillus fumigatus; with Trichosporon asahii; in the data set on Nakaseomyces glabratus; in the data set on Pichia kudriavzevii) was “inactive” each time. For the same compound, the “growth inhibition (GI)” value (in the data set with Candida albicans; in the data set on Candida tropicalis; in the data set on Klebsiella pneumoniae [3]; in the data set with Klebsiella pneumoniae [4]; in the data set with Enterococcus; in [5]) was “inactive” each time. Moreover, the “growth inhibition (GI)” value in the data set with Staphylococcus aureus [6], with Pseudomonas aeruginosa, in the data set on Escherichia coli and in the data set with Staphylococcus aureus [7] was “inactive” throughout. For the same compound, the “log K” value in [8] stood at 0.4229. The MIC in the data set on Mycobacterium avium [9] is > 100 µg/mL; with Mycobacterium avium [10] it was > 100 µg/mL; with Mycobacterium kansasii, 50 µg/mL (≈ 177 µM); in data set [11], 25 µg/mL (≈ 88.6 µM).
In the case of `O=C(NCc1ccccc1Cl)c1cnc(Cl)cn1`, in data set [1], the Stability entry is “Stable”. Further, the “growth inhibition (GI)” value (in data set [2]; in the data set with Lichtheimia corymbifera; in the data set with Aspergillus fumigatus; with Trichosporon asahii; with Nakaseomyces glabratus; with Pichia kudriavzevii) was “inactive” throughout. In addition, the “growth inhibition (GI)” value (in the data set on Candida albicans; in the data set with Candida tropicalis; in the data set on Klebsiella pneumoniae [3]; in the data set on Klebsiella pneumoniae [4]; in the data set with Enterococcus; in data set [5]) was “inactive” in each case. For the same compound, the “growth inhibition (GI)” value with Staphylococcus aureus [6], in the data set on Pseudomonas aeruginosa, in the data set with Escherichia coli and in the data set on Staphylococcus aureus [7] was “inactive” each time. For the same compound, in data set [8], the “log K” value is on record as 0.4168. The MIC was > 100 µg/mL in the data set with Mycobacterium avium [9], > 100 µg/mL with Mycobacterium avium [10], 6.25 µg/mL (≈ 22.2 µM) in the data set with Mycobacterium kansasii and 25 µg/mL (≈ 88.6 µM) in data set [11].
